Measurements from patent publication US7576094B2, “Spiro derivatives as lipoxygenase inhibitors” (Eli Lilly and Company, priority 2004, dated 2009).
pEC50, pIC50: −log10 of the molar value.

How the values were obtained:
[1] = molecular target: T1, human recombinant 5-Lipoxygenase (Homo sapiens, UniProt P09917); assay: 5-Lipoxygenase Enzyme Assay; format: biochemical; conditions: 70 μM arachidonic acid, 10 minute incubation at room temperature, FOX reagent, absorbance at 620 nm; read-out: inhibition of 5-Lipoxygenase with an IC50
T1 sequence (P09917 1-674): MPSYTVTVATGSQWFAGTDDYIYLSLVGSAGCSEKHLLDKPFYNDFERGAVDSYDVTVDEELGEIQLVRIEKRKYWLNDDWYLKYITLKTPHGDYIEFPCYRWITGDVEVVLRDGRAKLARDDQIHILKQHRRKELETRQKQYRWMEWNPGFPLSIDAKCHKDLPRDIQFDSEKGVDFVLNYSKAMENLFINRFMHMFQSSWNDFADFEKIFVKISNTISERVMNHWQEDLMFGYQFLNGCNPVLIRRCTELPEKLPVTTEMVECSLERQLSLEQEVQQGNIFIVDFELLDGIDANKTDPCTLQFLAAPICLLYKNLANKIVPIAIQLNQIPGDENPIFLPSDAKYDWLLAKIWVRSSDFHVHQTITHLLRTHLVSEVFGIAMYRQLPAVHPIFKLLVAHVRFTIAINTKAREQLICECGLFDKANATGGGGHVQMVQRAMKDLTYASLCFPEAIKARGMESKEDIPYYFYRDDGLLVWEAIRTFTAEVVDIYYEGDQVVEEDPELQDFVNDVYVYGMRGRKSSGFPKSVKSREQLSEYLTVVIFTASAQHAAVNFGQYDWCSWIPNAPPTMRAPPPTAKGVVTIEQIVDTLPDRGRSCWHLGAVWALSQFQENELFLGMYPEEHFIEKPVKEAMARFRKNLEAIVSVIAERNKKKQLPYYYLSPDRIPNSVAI
How it was run: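 Recombinant human 5-LOX in 50 mM Tris-HCl pH 7.4 was preincubated with compound, then 70 μM arachidonic acid was added for 10 min at room temperature. Hydroperoxide was read by FOX reagent (ferric xylenol orange, 1 h complex formation) as absorbance at 620 nm. Five concentrations in triplicate were tested, starting at 10 μM.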

[2] = test system: LTB4 production in human whole blood; assay: Inhibition of LTB4 Production in Blood; format: cell-based; conditions: 1 h, 20 μM A23187, 60 minutes at 37° C., LTB4 in plasma by ELISA, read-out: protection against LTB4 at an EC50
How it was run: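 Citrated human whole blood preincubated 15 min at 37 °C with compound (top final 30 μM, 1:3 dilutions, quadruplicate), then stimulated with 20 μM A23187 for 60 min at 37 °C. Plasma LTB4 quantified by ELISA; IC50 from percent inhibition versus vehicle.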

Structure (SMILES) | pIC50 [1] | pEC50 [2]
Cc1c(C)c2c(c(C)c1O)C1(CCC1)CC(C)(C)S2 [2′,2′,5′,7′,8′-pentamethyl-2′,3′-dihydrospiro[cyclobutane-1,4′-thiochromen]-6′-ol] | > 6.52 | > 5.00
COC(C)C1=Cc2c(C)c(O)c(C)c(C)c2OC12CCC2 (stereo not drawn) [3-(1-methoxyethyl)-5,7,8-trimethylspiro[chromene-2,1′-cyclobutan]-6-ol] | > 6.52 | > 5.00
CCONCC1=Cc2c(cc(C)c(O)c2C)OC12CCC2 [3-[(ethoxyamino)methyl]-5,7-dimethylspiro[chromene-2,1′-cyclobutan]-6-ol] | > 6.52 | > 5.00
CCONC1CC2(CCC2)Sc2c(C)c(C)c(O)c(C)c21 (stereo not drawn) [4′-(ethoxyamino)-5′,7′,8′-trimethyl-3′,4′-dihydrospiro[cyclobutane-1,2′-thiochromen]-6′-ol] | > 6.52 | > 5.00
CCONC1CC2(CCC2)Sc2cc(C)c(O)c(C)c21 (stereo not drawn) [4′-(ethoxyamino)-5′,7′-dimethyl-3′,4′-dihydrospiro[cyclobutane-1,2′-thiochromen]-6′-ol] | > 6.52 | > 5.00
CONC1CC2(CCC2)Sc2c(C)c(C)c(O)c(C)c21 (stereo not drawn) [4′-(methoxyamino)-5′,7′,8′-trimethyl-3′,4′-dihydrospiro[cyclobutane-1,2′-thiochromen]-6′-ol] | > 6.52 | > 5.00
CONC1CC2(CCC2)Sc2cc(C)c(O)c(C)c21 (stereo not drawn) [4′-(methoxyamino)-5′,7′-dimethyl-3′,4′-dihydrospiro[cyclobutane-1,2′-thiochromen]-6′-ol] | > 6.52 | > 5.00
Cc1c(C)c2c(c(C)c1O)CCC1(CC1)O2 [5,7,8-trimethyl-3,4-dihydrospiro[chromene-2,1′-cyclopropan]-6-ol] | > 6.52 | > 5.00
Cc1cc2c(c(C)c1O)CCC1(CCC1)O2 [5,7-dimethyl-3,4-dihydrospiro[chromene-2,1′-cyclobutan]-6-ol] | > 6.52 | > 5.00
Cc1cc2c(c(C)c1O)CC1(CCC1)CO2 [5,7-dimethylspiro[chroman-3,1′-cyclobutan]-6-ol] | > 6.52 | > 5.00
Cc1cc2c(c(C)c1O)C=CC1(CCC1)O2 [5,7-dimethylspiro[chromene-2,1′-cyclobutan]-6-ol] | > 6.52 | > 5.00
Cc1c(C)c2c(c(Cl)c1O)CCC1(CCC1)O2 [5-chloro-7,8-dimethyl-3,4-dihydrospiro[chromene-2,1′-cyclobutan]-6-ol] | > 6.52 | –
Cc1c(C)c2c(c(C)c1O)C1(CCC1)CCS2 [5′,7′,8′-trimethyl-2′,3′-dihydrospiro[cyclobutane, 1,4′-thiochromen]-6′-ol] | > 6.52 | –
CCO/N=C/C1=Cc2c(cc(C)c(O)c2C)OC12CCC2 [6-hydroxy-5,7-dimethylspiro[chromene-2,1′-cyclobutane]-3-carbaldehyde O-ethyloxime] | > 6.52 | > 5.00
CO/N=C1\CC2(CCC2)Sc2c(C)c(C)c(O)c(C)c21 [6′-hydroxy-5′,7′,8′-trimethylspiro[cyclobutane-1,2′-thiochroman]-4′(3′H)-one O-methyloxime] | > 6.52 | > 5.00
Cc1c(O)cc2c(c1C)OC1(CCC1)CC2 [7,8-dimethyl-3,4-dihydrospiro[chromene-2,1′-cyclobutan]-6-ol] | > 6.52 | > 5.00
CC(C)(C)c1cc2c(cc1O)CCC1(CCC1)O2 [7-tert-butyl-3,4-dihydrospiro[chromene-2,1′-cyclobutan]-6-ol] | > 6.52 | > 5.00
Cc1c(O)c(C(C)(C)C)cc2c1CCC1(CCC1)O2 [7-tert-butyl-5-methyl-3,4-dihydrospiro[chromene-2,1′-cyclobutan]-6-ol] | > 6.52 | > 5.00
CCc1cc2c(c(CC)c1O)CC(CSCC(=O)OC)C1(CCC1)O2 (stereo not drawn) [methyl 2-((5,7-diethyl-6-hydroxyspiro[chroman-2,1′-cyclobutane]-3-yl)methylthio)acetate] | > 6.52 | > 5.00
